Reference: PubChem BioAssay (NCI)
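GI50 marks 50% less growth. TGI: concentration producing complete growth inhibition.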

Key:
Assay in all cases: NCI tumour cell line growth inhibition, 384-well format
[1] = test system: 786-0 renal
[2] = test system: A498 renal
[3] = test system: A549 NSCLC
[4] = test system: ACHN renal
[5] = test system: BT-549 breast
[6] = test system: CAKI-1 renal
[7] = test system: CCRF-CEM leukemia
[8] = test system: COLO 205 colon
[9] = test system: DU-145 prostate
[10] = test system: HCC-2998 colon
[11] = test system: HCT-116 colon
[12] = test system: HCT-15 colon
[13] = test system: HL-60(TB) leukemia
[14] = test system: HOP-62 NSCLC
[15] = test system: HOP-92 NSCLC
[16] = test system: HT29 colon
[17] = test system: IGROV1 ovarian
[18] = test system: K-562 leukemia
[19] = test system: KM12 colon
[20] = test system: LOX IMVI melanoma
[21] = test system: M14 melanoma
[22] = test system: MALME-3M melanoma
[23] = test system: MCF7 breast
[24] = test system: MDA-MB-231 breast
[25] = test system: MDA-MB-435 melanoma
[26] = test system: MDA-MB-468 breast
[27] = test system: MOLT-4 leukemia
[28] = test system: NCI-H226 lung
[29] = test system: NCI-H23 lung
[30] = test system: NCI-H322M lung
[31] = test system: NCI-H460 NSCLC
[32] = test system: NCI-H522 lung
[33] = test system: NCI/ADR-RES ovarian
[34] = test system: OVCAR-3 ovarian
[35] = test system: OVCAR-4 ovarian
[36] = test system: OVCAR-5 ovarian
[37] = test system: OVCAR-8 ovarian
[38] = test system: PC-3 prostate
[39] = test system: RPMI-8226 leukemia
[40] = test system: RXF 393 renal
[41] = test system: SF-268 CNS
[42] = test system: SF-295 CNS
[43] = test system: SF-539 CNS
[44] = test system: SK-MEL-2 melanoma
[45] = test system: SK-MEL-28 melanoma
[46] = test system: SK-MEL-5 melanoma
[47] = test system: SK-OV-3 ovarian
[48] = test system: SN12C renal
[49] = test system: SNB-19 CNS
[50] = test system: SR leukemia
[51] = test system: SW-620 colon
[52] = test system: T-47D breast
[53] = test system: TK-10 renal
[54] = test system: U251 glioblastoma
[55] = test system: UACC-257 melanoma
[56] = test system: UACC-62 melanoma
[57] = test system: UO-31 renal

Cc1cc(NC(=O)c2ccc(NS(=O)(=O)CCO)cc2N2CCC3(CC2)CC3)nc(N2CCC(F)(F)CC2)n1
GI50 [1]: 1.63 µM | TGI [1]: 3.07 µM | GI50 [2]: 0.484 µM | TGI [2]: 2.35 µM | GI50 [3]: 2.53 µM | TGI [3]: 6.67 µM | GI50 [4]: 2.02 µM | TGI [4]: 4.94 µM | GI50 [5]: 0.0246 µM | TGI [5]: 1.26 µM | GI50 [6]: 1.89 µM | TGI [6]: 6.28 µM | GI50 [7]: 1.72 µM | TGI [7]: 3.12 µM | GI50 [8]: 1.66 µM | TGI [8]: 3.28 µM | GI50 [9]: 0.0563 µM | TGI [9]: 2.7 µM | GI50 [10]: 0.0725 µM | TGI [10]: 0.402 µM | GI50 [11]: 1.44 µM | TGI [11]: 2.85 µM | GI50 [12]: 1.66 µM | TGI [12]: 3.06 µM | GI50 [13]: 2.2 µM | TGI [13]: 3.67 µM | GI50 [14]: 1.94 µM | TGI [14]: 3.65 µM | GI50 [15]: 1.89 µM | TGI [15]: 3.41 µM | GI50 [16]: 0.0317 µM | TGI [16]: 0.152 µM | GI50 [17]: 1.94 µM | TGI [17]: 4.96 µM | GI50 [18]: 1.57 µM | TGI [18]: 3.04 µM | GI50 [19]: 0.694 µM | TGI [19]: 2.18 µM | GI50 [20]: 2.12 µM | TGI [20]: 3.58 µM | GI50 [21]: 0.328 µM | TGI [21]: 1.25 µM | GI50 [22]: 0.614 µM | TGI [22]: 3.42 µM | GI50 [23]: 2.09 µM | TGI [23]: 4.91 µM | GI50 [24]: 0.0743 µM | TGI [24]: 2.48 µM | GI50 [25]: 0.686 µM | TGI [25]: 5.3 µM | GI50 [26]: 0.0352 µM | TGI [26]: 0.648 µM | GI50 [27]: 1.76 µM | TGI [27]: 3.18 µM | GI50 [28]: 1.57 µM | TGI [28]: 3.13 µM | GI50 [29]: 1.31 µM | TGI [29]: 2.67 µM | GI50 [30]: 0.564 µM | TGI [30]: 3.37 µM | GI50 [31]: 0.298 µM | TGI [31]: 1.05 µM | GI50 [32]: 1.86 µM | TGI [32]: 4.33 µM | GI50 [33]: 0.101 µM | TGI [33]: 0.703 µM | TGI [34]: 0.0235 µM | GI50 [35]: 0.258 µM | TGI [35]: 1.3 µM | GI50 [36]: 2.01 µM | TGI [36]: 4.7 µM | GI50 [37]: 0.0716 µM | TGI [37]: 2.61 µM | GI50 [38]: 1.85 µM | TGI [38]: 3.39 µM | GI50 [39]: 1.59 µM | TGI [39]: 2.95 µM | GI50 [40]: 0.0135 µM | TGI [40]: 0.0666 µM | GI50 [41]: 1.42 µM | TGI [41]: 3.31 µM | GI50 [42]: 0.373 µM | TGI [42]: 1.14 µM | GI50 [43]: 0.0537 µM | TGI [43]: 0.391 µM | GI50 [44]: 0.0899 µM | TGI [44]: 2.91 µM | GI50 [45]: 0.792 µM | TGI [45]: 5.84 µM | GI50 [46]: 1.68 µM | TGI [46]: 3.07 µM | GI50 [47]: 0.0895 µM | TGI [47]: 5.81 µM | GI50 [48]: 1.85 µM | TGI [48]: 3.53 µM | GI50 [49]: 1.44 µM | TGI [49]: 3.11 µM | GI50 [50]: 0.0221 µM | TGI [50]: 0.135 µM | GI50 [51]: 1.65 µM | TGI [51]: 3.14 µM | GI50 [52]: 0.694 µM | TGI [52]: 14.1 µM | GI50 [53]: 2.16 µM | TGI [53]: 4.76 µM | GI50 [54]: 0.0608 µM | TGI [54]: 0.479 µM | GI50 [55]: 0.39 µM | TGI [55]: 1.96 µM | GI50 [56]: 1.59 µM | TGI [56]: 3.49 µM | GI50 [57]: 1.25 µM | TGI [57]: 2.89 µM
